Reference: patent US20220133895A1, “CAMPTOTHECIN-BASED DIMER COMPOUND, ANTICANCER DRUG AND METHOD OF ELIMINATING CANCER STEM CELL” (HUAZHONG UNIVERSITY OF SCIENCE AND TECHNOLOGY, priority 2020, published 2022)
pIC50: −log10 of the molar value.

What was measured:
[1] = system: mouse 4T1 breast cancer orthotopic tumor; assay: In vivo anti-tumor activity, intratumoral injection, 4T1 orthotopic model; conditions: for tumor suppression rate: BALB/c mice, CPT 1 mg/kg or CN 2.4 mg/kg intratumoral, NLG 500 ug/mouse gavage
[2] = system: 4T1 (breast cancer) cells; assay: In vitro induction of immunogenic cell death; assay type: cell-based, mouse; conditions: 4T1 cells, 10 μM, 48 hours
Experimental: The in vitro activity of the compound CN in inducing immunogenic cell death was evaluated.
4T1 (breast cancer) cells were seeded into a 6-well plate at a density of 1×10^5 cells per well and cultured overnight. The cells were treated with PBS, CPT (camptothecin), NLG (IDO inhibitor), CPT+NLG, CN (all drug concentrations were 10 μM) for 48 hours. The supernatant was collected and cultured to detect the release of ATP and HMGB-1. The cells were trypsinized, then incubated with CRT antibody on ice for 30 minutes in the dark, and analyzed by flow cytometry. In addition, CRT eversion was also studied by immunofluorescence imaging. 4T1 cells were seeded into a confocal culture dish at a density of 1×10^5 cells per well and cultured overnight. The cells were treated with PBS, CPT (camptothecin), NLG (IDO inhibitor), CPT+NLG, CN (all drug concentrations were 10 μM) for 48 hours. The cells were washed twice with PBS and incubated with CRT antibody for 30 minutes. Washing was performed twice with PBS, and fixing was then performed with 4% paraformaldehyde. After washing was performed twice with PBS again, the nucleus was stained with DAPI for 30 minutes. After washing was performed twice, the cells were imaged with a confocal microscope.

cancer stem cells = assay: Effect on cancer stem cells (cell cycle, 3D tumor spheroids) from treated 4T1 tumors; assay type: in vivo, mouse; conditions: for G1-S cell cycle / dormancy of cancer stem cells: CD133, EdU, hoechst33342 flow cytometry
Experimental: The effect of the compound CN on cancer stem cells is studied, the specific steps were proceeded as follows. In the single cell suspension prepared in Example 6, the cell cycle (CD133, EdU, hoechst33342) of cancer stem cells was stained with antibodies, and the dormancy of the cancer stem cells was analyzed by flow cytometry. […] Fibrinogen was diluted to 20 mg/mL with T7 buffer (pH 7.4, 50 mM Tris, 150 mM NaCl), and then mixed with the above cell suspension in equal volume. 1 μL of thrombin (0.1 U/μL) was added to the 96-well plate in advance, and 50 μL of the mixed cell suspension was added. […] On the seventh day, the cell pellets in the 96-well plate were photographed and counted. The particle size of tumor cell spheroids was measured, and the number of tumor cell spheroids was counted to characterize the stemness and tumor-forming ability of tumor cells.

[3] = Reduction responsiveness in GSH solution, by mass spectrometry; assay type: physicochemical; conditions: 100 mM GSH aqueous solution, stirred 12 hours
Experimental: Study on the reduction responsiveness of compounds was performed as follows.
A small amount of the compound CN was added to 100 mM GSH aqueous solution and stirred for 12 hours.

IDO = biological target: T1, IDO (Homo sapiens, UniProt P14902); assay: In vitro IDO inhibitory activity in IFN-γ-stimulated Hela cells; assay type: cell-based
T1 construct: endogenous in cells; host or cells: HeLa cells stimulated with human IFN-γ
Experimental: The inhibitory activity of the compound CN on IDO in vitro was investigated.
Hela cells were plated with a 96-well plate at 4,000 cells/well in DMEM complete medium containing 80 ng/ml of human IFN-γ, and incubated with a series of DMEM medium containing CN or NLG at a concentration of 0 μM, 0.1 μM, 1 μM, 10 μM, and 100 μM for 24 hours after 12 hours. 150 ul culture medium was aspirated, 75 ul trichloroacetic acid aqueous solution (30% w/v) was added, incubated at 50° C. for 30 min, and centrifuged at 3000 rpm for 10 minutes. 100 ul of the supernatant was collected, 100 ul of p-dimethylaminobenzaldehyde glacial acetic acid solution (2%, w/v) was added, placed at room temperature for 10 minutes, and the absorption was detected at 492 nm.

[4] = system: mouse 4T1 breast cancer orthotopic tumor; assay: Effect on antitumor immune response (DC maturation, Treg) in 4T1 tumor mice; assay type: in vivo; conditions: for regulatory T cells (Treg) in tumors: flow cytometry CD3, CD4, CD25, FoxP3
Excerpt: The effect of the compound CN on antitumor immune response is studied, the specific steps were proceeded as follows. The tumor and adjacent lymph nodes of the mice in Example 4 were stripped. […] The adjacent lymph nodes were squeezed through a 200-mesh screen to prepare a single cell suspension, and the maturation of lymph node dendritic cells (DC cells, CD11c, CD80, CD86) was studied with antibodies.

[5] = system: mouse 4T1 breast cancer orthotopic tumor; assay: Anti-tumor activity of CN@PHF, tail vein, 4T1 orthotopic model; assay type: in vivo; conditions: CN 2.4 mg/kg, days 1, 4, 7, 10
Excerpt: The anti-tumor activity of CN@PHF in the mouse 4T1 breast cancer orthotopic tumor model was investigated and the specific steps were proceeded as follows:
At the age of 6 weeks, 20 g female BALB/c mice were inoculated with 5×10^5 cells of mouse breast cancer 4T1 cell suspension into the fourth pair of left breast pads on the abdomen of female BALB/c mice to establish a mouse model of 4T1 tumor in situ. When the tumor volume in situ was about 100 mm^3, the mice were randomly divided into 5 groups, 10 mice in each group, and were injected with normal saline, CN, Taxol, Irinotecan, CN@PHF through the tail vein. The dose of CN was 2.4 mg/kg, and the concentrations of Taxol and Irinotecan were the same as the molar concentration of CN. The administration time on the first day was recorded as the first day, and then the above-mentioned doses were administered on the 4th, 7th, and 10th days. From the 1st day, the mouse body weight and tumor volume were measured every other day, and the tumor volume-time curve was drawn. The mice were sacrificed on the 19th day, the tumor in situ was removed, weighed, and photographed. Tumors were stained with HE and TUNEL to study tumor cell apoptosis and stained with Ki67 to study tumor cell proliferation.

[6] = system: mouse 4T1 breast cancer orthotopic tumor; assay: Influence on the cancer stem cell niche, 4T1 orthotopic model; assay type: in vivo; conditions: tail vein, day 13, CD133, EdU, hoechst33342
Experimental: At the age of 6 weeks, 20 g female BALB/c mice were inoculated with 5×10^5 cells of mouse breast cancer 4T1 cell suspension into the fourth pair of left breast pads on the abdomen of female BALB/c mice to establish a mouse model of 4T1 tumor in situ. […] The administration time on the first day was recorded as the first day, and then the above-mentioned doses were administered on the 4th, 7th, and 10th days. On the 13th day, 50 μL of Edu (8 mg/ml) was injected into the tumor. Three hours later, the mice were sacrificed, the tumor in situ was stripped and divided into two parts. […] Flow cytometric analysis of the cell cycle (CD133, EdU, hoechst33342) of cancer stem cells was carried out to investigate the effect of drugs on the dormancy of cancer stem cells.

T1 sequence (P14902 whole entry): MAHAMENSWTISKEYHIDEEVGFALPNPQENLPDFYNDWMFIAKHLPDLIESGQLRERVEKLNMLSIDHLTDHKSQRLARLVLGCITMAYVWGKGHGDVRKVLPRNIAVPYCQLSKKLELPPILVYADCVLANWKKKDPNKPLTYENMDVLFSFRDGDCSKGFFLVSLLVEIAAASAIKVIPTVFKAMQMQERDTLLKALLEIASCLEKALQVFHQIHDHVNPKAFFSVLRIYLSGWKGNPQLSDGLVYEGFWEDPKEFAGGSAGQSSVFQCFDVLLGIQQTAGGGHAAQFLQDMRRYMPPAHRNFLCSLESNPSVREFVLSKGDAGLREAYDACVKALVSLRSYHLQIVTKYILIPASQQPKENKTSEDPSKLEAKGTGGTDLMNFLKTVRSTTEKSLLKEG

SMILES	tumor suppression rate ([1]; days 1, 4, 7, 10) [%]	tumor volume ([1]; intratumoral injection, 2.4 mg/kg, days 1, 4, 7, 10)	tumor elimination ([1]; intratumoral injection, 8 mice per group, day 15)	weight of the tumor ([1]; intratumoral injection, sacrificed day 15)	ATP release relative to CPT and CPT+NLG groups [2]	CRT eversion, confocal imaging [2]	ability to induce CRT eversion relative to CPT group, flow cytometry [2]	ability to induce HMGB-1 [2]	G1-S cell cycle / dormancy of cancer stem cells (cancer stem cells)	number and particle size of 3D spheres of tumor cells (cancer stem cells; fibrin gel culture, seventh day)	reduction responsiveness (degradation products) [3]	pIC50 (IDO)	inhibition at 1 µM (IDO; HeLa, read-out: IDO inhibition rate) [%]	regulatory T cells (Treg) in tumors [4]	DC maturation in lymph nodes adjacent to tumors ([4]; flow cytometry CD11c, CD80, CD86)	proportion of mature DC relative to CPT group ([4]; lymph nodes adjacent to tumors)	tumor volume [5]	dormancy / cycle inhibition of cancer stem cells [6]
CC[C@@]1(OC(=O)OCSSCOC(=O)OC(CC2c3ccccc3-c3cncn32)C2CCCCC2)C(=O)OCc2c1cc1n(c2=O)Cc2cc3ccccc3nc2-1 (stereo partly drawn) [CN]	85	significantly smaller than that of the other groups	one tumor was completely eliminated	significantly lower than that of the other groups	2-3 times	more CRT eversion	about 1.5 times	significantly stronger than that of the other groups	significantly reduce the G1/S ratio	significantly lower than those in the other groups	degraded to the original camptothecin and NLG919	~7.10	~100	reverse the increase in Treg caused by CPT	increased significantly	about twice that of CPT group	significantly smaller than the normal saline group and the positive drugs Taxol and Irinotecan groups	–
CC[C@@]1(O)C(=O)OCc2c1cc1n(c2=O)Cc2cc3ccccc3nc2-1 [CPT, camptothecin]	61.9	–	–	–	–	–	–	–	block the G1-S cell cycle of cancer stem cells	–	–	–	–	significant increase in Treg	–	–	–	–
CCc1c2c(nc3ccc(OC(=O)N4CCC(N5CCCCC5)CC4)cc13)-c1cc3c(c(=O)n1C2)COC(=O)[C@]3(O)CC [Irinotecan]	–	–	–	–	–	–	–	–	–	–	–	–	–	–	–	–	–	increase the dormancy of cancer stem cells
